Reference: ChEMBL document CHEMBL3991601, “The target landscape of clinical kinase drugs” (Science, 2017)
Calls of active or inactive are those of the source.

Assays:
[1] = target: T1, Exosome RNA helicase MTR4 (Homo sapiens, UniProt P42285)
T1 sequence (P42285 whole entry): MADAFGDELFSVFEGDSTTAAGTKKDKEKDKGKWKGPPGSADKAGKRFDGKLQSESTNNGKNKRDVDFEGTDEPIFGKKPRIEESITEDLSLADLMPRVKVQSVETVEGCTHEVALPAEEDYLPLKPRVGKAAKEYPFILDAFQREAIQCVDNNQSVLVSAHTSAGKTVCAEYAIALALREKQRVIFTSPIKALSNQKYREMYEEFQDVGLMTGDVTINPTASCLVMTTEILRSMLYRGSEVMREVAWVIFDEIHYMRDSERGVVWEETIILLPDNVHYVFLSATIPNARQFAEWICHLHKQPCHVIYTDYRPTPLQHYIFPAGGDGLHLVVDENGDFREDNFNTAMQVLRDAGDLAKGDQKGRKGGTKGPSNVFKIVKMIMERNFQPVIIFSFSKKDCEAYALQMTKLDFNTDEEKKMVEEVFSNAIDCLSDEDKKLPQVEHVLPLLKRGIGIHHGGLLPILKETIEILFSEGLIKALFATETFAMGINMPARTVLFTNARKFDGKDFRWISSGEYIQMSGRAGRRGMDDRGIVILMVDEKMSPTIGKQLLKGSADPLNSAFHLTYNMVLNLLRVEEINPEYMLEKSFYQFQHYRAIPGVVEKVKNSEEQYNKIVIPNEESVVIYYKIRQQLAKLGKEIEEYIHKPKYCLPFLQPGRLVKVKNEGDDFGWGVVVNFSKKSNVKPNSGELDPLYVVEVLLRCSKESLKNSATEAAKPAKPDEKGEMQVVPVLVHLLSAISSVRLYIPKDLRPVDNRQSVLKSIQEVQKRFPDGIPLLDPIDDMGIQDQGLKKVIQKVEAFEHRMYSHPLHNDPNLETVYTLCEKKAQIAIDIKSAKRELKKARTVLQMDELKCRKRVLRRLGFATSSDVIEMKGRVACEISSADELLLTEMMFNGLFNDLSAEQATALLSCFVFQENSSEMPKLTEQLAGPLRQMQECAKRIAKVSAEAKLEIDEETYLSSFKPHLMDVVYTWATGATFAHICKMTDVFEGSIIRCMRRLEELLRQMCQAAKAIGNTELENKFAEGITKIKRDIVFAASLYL

[2] = target: DNA topoisomerase 2-alpha (Homo sapiens, UniProt P11388)
[3] = target: NADH dehydrogenase [ubiquinone] 1 alpha subcomplex subunit 13 (Homo sapiens, UniProt Q9P0J0)
[4] = target: T2, TGF-beta receptor type-1 (Homo sapiens, UniProt P36897)
T2 sequence (P36897 whole entry): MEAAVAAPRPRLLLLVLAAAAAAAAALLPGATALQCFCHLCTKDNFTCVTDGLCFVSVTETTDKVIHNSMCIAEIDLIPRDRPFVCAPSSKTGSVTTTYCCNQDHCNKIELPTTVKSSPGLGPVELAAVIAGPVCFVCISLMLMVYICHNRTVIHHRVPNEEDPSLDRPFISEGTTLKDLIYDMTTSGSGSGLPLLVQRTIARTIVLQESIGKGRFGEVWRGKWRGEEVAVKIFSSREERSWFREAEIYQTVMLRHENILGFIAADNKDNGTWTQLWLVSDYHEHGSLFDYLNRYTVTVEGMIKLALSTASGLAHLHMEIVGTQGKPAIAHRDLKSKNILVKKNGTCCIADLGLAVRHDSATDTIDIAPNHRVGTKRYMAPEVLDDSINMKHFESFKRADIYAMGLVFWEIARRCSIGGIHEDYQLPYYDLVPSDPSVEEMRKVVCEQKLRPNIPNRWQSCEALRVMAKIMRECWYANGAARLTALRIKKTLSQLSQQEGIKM

[5] = target: cAMP-dependent protein kinase catalytic subunit beta (Homo sapiens, UniProt P22694)
[6] = target: T3, Glycine--tRNA ligase (Homo sapiens, UniProt P41250)
T3 sequence (P41250 whole entry): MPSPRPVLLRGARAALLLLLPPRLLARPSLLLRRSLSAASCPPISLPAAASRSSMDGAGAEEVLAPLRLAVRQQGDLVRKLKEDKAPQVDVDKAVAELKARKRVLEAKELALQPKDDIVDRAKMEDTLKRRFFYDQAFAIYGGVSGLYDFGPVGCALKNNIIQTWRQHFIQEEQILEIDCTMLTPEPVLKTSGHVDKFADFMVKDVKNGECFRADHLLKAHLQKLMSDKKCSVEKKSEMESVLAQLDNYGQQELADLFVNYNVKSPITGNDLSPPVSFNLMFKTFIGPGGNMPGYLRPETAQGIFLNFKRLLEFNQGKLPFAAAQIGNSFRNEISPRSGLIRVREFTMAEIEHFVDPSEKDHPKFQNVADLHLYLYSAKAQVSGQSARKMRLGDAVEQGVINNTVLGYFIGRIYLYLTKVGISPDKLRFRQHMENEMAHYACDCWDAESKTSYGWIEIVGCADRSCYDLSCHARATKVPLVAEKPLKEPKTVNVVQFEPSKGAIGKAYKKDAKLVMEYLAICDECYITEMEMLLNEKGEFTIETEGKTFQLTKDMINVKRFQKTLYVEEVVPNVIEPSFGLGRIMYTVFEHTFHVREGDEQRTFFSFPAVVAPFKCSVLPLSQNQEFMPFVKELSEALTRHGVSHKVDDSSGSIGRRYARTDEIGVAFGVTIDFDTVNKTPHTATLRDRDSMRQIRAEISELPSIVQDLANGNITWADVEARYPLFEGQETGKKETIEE

[7] = target: T4, Cytochrome c1, heme protein, mitochondrial (Homo sapiens, UniProt P08574)
T4 sequence (P08574 whole entry): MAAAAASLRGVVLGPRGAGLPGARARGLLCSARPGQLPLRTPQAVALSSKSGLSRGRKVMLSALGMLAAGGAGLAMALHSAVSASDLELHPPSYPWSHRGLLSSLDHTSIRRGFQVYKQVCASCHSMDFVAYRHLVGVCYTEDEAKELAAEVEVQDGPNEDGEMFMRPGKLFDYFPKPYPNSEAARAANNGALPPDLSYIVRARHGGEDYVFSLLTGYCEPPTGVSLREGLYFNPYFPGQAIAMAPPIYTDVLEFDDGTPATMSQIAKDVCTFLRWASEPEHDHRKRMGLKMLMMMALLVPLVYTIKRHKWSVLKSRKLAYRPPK

[8] = target: Myosin-10 (Homo sapiens, UniProt P35580)
Further: in the data inactive means no Kd found up to 30 µM.

Chain of Myosin-10 (P35580 whole entry): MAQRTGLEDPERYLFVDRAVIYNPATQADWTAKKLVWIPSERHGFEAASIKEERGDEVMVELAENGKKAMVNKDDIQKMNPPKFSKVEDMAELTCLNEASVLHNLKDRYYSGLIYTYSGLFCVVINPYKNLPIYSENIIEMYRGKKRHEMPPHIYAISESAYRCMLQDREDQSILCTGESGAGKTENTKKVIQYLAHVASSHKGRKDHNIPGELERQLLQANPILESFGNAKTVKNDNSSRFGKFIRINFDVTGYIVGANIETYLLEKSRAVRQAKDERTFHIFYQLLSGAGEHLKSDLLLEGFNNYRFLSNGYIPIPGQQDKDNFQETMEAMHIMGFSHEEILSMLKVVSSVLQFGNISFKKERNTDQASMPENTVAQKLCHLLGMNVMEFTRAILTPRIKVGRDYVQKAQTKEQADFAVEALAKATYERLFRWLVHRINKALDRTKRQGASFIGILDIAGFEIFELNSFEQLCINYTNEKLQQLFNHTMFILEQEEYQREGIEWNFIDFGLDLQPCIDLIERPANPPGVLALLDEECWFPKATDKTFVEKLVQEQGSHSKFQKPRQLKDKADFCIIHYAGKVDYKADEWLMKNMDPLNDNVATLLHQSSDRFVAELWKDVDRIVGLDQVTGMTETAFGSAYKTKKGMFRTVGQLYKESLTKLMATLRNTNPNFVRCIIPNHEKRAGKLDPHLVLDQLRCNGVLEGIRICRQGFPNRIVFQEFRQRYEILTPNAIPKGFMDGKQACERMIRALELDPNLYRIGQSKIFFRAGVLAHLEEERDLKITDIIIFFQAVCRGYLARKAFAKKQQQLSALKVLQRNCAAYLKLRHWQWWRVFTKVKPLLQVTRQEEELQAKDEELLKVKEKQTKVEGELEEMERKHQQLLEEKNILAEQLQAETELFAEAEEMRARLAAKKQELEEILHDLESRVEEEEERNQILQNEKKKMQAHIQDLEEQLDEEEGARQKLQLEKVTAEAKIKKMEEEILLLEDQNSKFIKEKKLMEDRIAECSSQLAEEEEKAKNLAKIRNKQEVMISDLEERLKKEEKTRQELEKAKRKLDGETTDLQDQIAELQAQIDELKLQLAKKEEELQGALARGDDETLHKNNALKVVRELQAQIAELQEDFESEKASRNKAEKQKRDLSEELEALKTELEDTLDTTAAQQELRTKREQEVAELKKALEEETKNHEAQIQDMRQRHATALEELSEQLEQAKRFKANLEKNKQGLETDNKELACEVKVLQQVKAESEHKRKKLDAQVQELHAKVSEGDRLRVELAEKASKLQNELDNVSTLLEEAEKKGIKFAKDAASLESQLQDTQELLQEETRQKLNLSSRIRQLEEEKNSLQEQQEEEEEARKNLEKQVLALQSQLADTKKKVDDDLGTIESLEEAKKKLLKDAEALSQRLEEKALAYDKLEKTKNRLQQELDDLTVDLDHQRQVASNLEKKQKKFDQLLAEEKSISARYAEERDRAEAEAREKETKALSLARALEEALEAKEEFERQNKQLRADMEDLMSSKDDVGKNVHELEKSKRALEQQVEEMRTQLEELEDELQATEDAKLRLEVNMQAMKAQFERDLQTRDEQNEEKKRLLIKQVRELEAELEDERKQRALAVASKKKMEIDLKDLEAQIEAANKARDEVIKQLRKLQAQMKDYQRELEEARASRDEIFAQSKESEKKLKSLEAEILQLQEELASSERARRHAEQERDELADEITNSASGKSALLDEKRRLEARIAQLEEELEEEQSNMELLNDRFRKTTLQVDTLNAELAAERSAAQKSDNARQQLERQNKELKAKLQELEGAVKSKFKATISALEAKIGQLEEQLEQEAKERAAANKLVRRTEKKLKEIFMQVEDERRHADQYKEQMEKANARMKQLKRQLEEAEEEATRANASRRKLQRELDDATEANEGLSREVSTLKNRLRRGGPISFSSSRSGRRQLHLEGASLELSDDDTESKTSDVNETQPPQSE
Chain of NADH dehydrogenase [ubiquinone] 1 alpha subcomplex subunit 13 (Q9P0J0 whole entry, one chain of several): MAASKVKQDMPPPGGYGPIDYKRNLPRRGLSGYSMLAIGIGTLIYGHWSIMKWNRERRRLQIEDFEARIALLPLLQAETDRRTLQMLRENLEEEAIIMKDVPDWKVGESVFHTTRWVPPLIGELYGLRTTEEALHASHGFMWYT
Chain of DNA topoisomerase 2-alpha (P11388 whole entry): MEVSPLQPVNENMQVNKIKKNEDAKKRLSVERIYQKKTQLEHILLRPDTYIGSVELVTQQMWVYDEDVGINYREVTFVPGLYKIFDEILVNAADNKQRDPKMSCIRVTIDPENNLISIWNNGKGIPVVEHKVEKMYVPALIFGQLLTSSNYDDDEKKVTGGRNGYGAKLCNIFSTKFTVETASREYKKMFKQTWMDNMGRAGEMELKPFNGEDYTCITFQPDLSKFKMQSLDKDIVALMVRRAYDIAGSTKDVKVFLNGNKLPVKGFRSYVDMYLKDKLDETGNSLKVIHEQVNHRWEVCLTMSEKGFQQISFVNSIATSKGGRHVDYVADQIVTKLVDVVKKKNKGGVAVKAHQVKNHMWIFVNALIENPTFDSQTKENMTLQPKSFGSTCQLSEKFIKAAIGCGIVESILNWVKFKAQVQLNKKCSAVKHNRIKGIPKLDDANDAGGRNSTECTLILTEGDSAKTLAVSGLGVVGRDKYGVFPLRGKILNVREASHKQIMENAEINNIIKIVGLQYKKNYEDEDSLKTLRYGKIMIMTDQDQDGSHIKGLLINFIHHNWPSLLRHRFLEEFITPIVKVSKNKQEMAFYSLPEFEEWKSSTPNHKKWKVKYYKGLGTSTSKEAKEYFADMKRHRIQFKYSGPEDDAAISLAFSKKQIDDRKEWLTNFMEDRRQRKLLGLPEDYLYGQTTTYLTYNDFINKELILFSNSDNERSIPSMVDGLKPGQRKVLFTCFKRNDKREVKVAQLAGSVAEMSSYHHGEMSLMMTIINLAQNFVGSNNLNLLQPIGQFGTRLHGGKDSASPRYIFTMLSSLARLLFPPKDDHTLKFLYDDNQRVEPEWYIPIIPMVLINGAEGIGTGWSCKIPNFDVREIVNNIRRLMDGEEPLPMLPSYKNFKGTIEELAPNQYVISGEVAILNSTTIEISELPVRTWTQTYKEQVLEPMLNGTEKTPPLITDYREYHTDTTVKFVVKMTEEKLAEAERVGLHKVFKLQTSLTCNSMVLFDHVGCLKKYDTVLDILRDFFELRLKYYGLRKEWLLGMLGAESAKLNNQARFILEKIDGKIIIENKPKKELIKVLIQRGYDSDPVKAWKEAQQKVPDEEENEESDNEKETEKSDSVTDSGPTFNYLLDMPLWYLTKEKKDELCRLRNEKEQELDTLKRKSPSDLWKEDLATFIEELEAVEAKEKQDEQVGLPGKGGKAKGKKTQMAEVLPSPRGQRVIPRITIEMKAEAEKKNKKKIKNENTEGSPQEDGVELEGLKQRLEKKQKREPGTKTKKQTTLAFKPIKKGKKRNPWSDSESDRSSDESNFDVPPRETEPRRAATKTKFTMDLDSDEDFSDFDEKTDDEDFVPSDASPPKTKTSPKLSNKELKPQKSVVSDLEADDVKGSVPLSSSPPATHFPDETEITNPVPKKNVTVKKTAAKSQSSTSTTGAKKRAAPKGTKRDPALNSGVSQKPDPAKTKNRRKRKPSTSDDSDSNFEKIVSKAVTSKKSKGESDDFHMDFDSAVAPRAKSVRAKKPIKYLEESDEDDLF

| Kd [1] | Kd [2] | Kd [3] | Kd [4] | Kd [5] | Kd [6] | Kd [7] | Kd [8] | SMILES |
| --- | --- | --- | --- | --- | --- | --- | --- | --- |
| > 30 µM (inactive) | > 30 µM (inactive) | > 30 µM (inactive) | > 30 µM (inactive) | > 30 µM (inactive) | > 30 µM (inactive) | > 30 µM (inactive) | > 30 µM (inactive) | COc1ncc(-c2ccc3nccc(-c4ccnnc4)c3c2)cc1NS(=O)(=O)c1ccc(F)cc1F [OMIPALISIB] |
| > 30 µM (inactive) | > 30 µM (inactive) | > 30 µM (inactive) | > 30 µM (inactive) | > 30 µM (inactive) | > 30 µM (inactive) | > 30 µM (inactive) | > 30 µM (inactive) | Cc1[nH]c(/C=C2\C(=O)Nc3ccccc32)c(C)c1CCC(=O)O [ORANTINIB] |
| > 30 µM (inactive) | > 30 µM (inactive) | > 30 µM (inactive) | > 30 µM (inactive) | > 30 µM (inactive) | > 30 µM (inactive) | > 30 µM (inactive) | > 30 µM (inactive) | Cc1cnc(NC(=O)Nc2cc(Br)c(C)cc2OC[C@@H]2CNCCO2)cn1 [RABUSERTIB] |
| > 30 µM (inactive) | > 30 µM (inactive) | > 30 µM (inactive) | > 30 µM (inactive) | > 30 µM (inactive) | > 30 µM (inactive) | > 30 µM (inactive) | > 30 µM (inactive) | CO[C@H]1C[C@@H]2CC[C@@H](C)[C@@](O)(O2)C(=O)C(=O)N2CCCC[C@H]2C(=O)O[C@H]([C@H](C)C[C@@H]2CC[C@@H](OP(C)(C)=O)[C@H](OC)C2)CC(=O)[C@H](C)/C=C(\C)[C@@H](O)[C@@H](OC)C(=O)[C@H](C)C[C@H](C)/C=C/C=C/C=C/1C [RIDAFOROLIMUS] |
| > 30 µM (inactive) | > 30 µM (inactive) | > 30 µM (inactive) | > 30 µM (inactive) | > 30 µM (inactive) | > 30 µM (inactive) | > 30 µM (inactive) | > 30 µM (inactive) | N#CC1(c2ccc(NC(=O)c3cccnc3NCc3ccncc3)cc2)CCCC1 [RIVOCERANIB] |
| > 30 µM (inactive) | > 30 µM (inactive) | > 30 µM (inactive) | > 30 µM (inactive) | > 30 µM (inactive) | > 30 µM (inactive) | > 30 µM (inactive) | > 30 µM (inactive) | CO[C@H]1C[C@@H]2CC[C@@H](C)[C@@](O)(O2)C(=O)C(=O)N2CCCC[C@H]2C(=O)O[C@H]([C@H](C)C[C@@H]2CC[C@@H](OC(=O)C(C)(CO)CO)[C@H](OC)C2)CC(=O)[C@H](C)/C=C(\C)[C@@H](O)[C@@H](OC)C(=O)[C@H](C)C[C@H](C)/C=C/C=C/C=C/1C [TEMSIROLIMUS] |
| > 30 µM (inactive) | > 30 µM (inactive) | > 30 µM (inactive) | 3.32 µM (active) | > 30 µM (inactive) | > 30 µM (inactive) | > 30 µM (inactive) | > 30 µM (inactive) | COc1cc2c(Nc3ccc(Cl)c(Cl)c3F)ncnc2cc1OC[C@@H]1C[C@@H]2CN(C)C[C@@H]2C1 [TESEVATINIB] |
| > 30 µM (inactive) | > 30 µM (inactive) | > 30 µM (inactive) | > 30 µM (inactive) | > 30 µM (inactive) | > 30 µM (inactive) | > 30 µM (inactive) | > 30 µM (inactive) | O=C(Cc1ccc(-c2ccc(OCCN3CCOCC3)cc2)cn1)NCc1ccccc1 [TIRBANIBULIN] |
| > 30 µM (inactive) | > 30 µM (inactive) | > 30 µM (inactive) | > 30 µM (inactive) | > 30 µM (inactive) | > 30 µM (inactive) | > 30 µM (inactive) | > 30 µM (inactive) | C[C@@H](NC(=O)c1ncnc(N)c1Cl)c1ncc(C(=O)Nc2cc(C(F)(F)F)c(Cl)cn2)s1 [TOVORAFENIB] |
| > 30 µM (inactive) | > 30 µM (inactive) | > 30 µM (inactive) | > 30 µM (inactive) | > 30 µM (inactive) | > 30 µM (inactive) | > 30 µM (inactive) | > 30 µM (inactive) | C[C@@H](N)c1ccc(C(=O)Nc2ccnc3[nH]ccc23)cc1 [Y-39983] |
| > 30 µM (inactive) | > 30 µM (inactive) | > 30 µM (inactive) | > 30 µM (inactive) | > 30 µM (inactive) | > 30 µM (inactive) | > 30 µM (inactive) | > 30 µM (inactive) | CN1C/C=C/CCOc2cccc(c2)-c2ccnc(n2)Nc2cccc(c2)C1 [ZOTIRACICLIB] |

| SMILES | Kd [1] | Kd [2] | Kd [3] | Kd [4] | Kd [5] | Kd [6] | Kd [7] | Kd [8] |
| --- | --- | --- | --- | --- | --- | --- | --- | --- |
| CCOc1cc2ncc(C#N)c(Nc3ccc(F)c(Cl)c3)c2cc1NC(=O)/C=C/CN(C)C [PELITINIB] | > 30 µM (inactive) | > 30 µM (inactive) | > 30 µM (inactive) | > 30 µM (inactive) | > 30 µM (inactive) | > 30 µM (inactive) | > 30 µM (inactive) | > 30 µM (inactive) |
| CNC(=O)c1cc(Oc2ccc(NC(=O)Nc3cc(C(C)(C)C)nn3-c3ccc4ncccc4c3)c(F)c2)ccn1 [REBASTINIB] | > 30 µM (inactive) | > 30 µM (inactive) | > 30 µM (inactive) | > 30 µM (inactive) | > 30 µM (inactive) | > 30 µM (inactive) | > 30 µM (inactive) | > 30 µM (inactive) |
| CN1CCN(CCOc2cc(OC3CCOCC3)c3c(Nc4c(Cl)ccc5c4OCO5)ncnc3c2)CC1 [SARACATINIB] | > 30 µM (inactive) | > 30 µM (inactive) | > 30 µM (inactive) | 0.197 µM (active) | > 30 µM (inactive) | > 30 µM (inactive) | > 30 µM (inactive) | > 30 µM (inactive) |
| Cc1cc(Nc2ncnc3ccc(NC4=NC(C)(C)CO4)cc23)ccc1Oc1ccn2ncnc2c1 [TUCATINIB] | > 30 µM (inactive) | > 30 µM (inactive) | > 30 µM (inactive) | > 30 µM (inactive) | > 30 µM (inactive) | > 30 µM (inactive) | > 30 µM (inactive) | > 30 µM (inactive) |
